Assay results: patent publication EP4786487A1, “PEPTIDE” (Peptidream Inc, priority 2023, dated 2025)
Positions of bridges follow the written chain, without caps; N, C: chain ends. Non-standard residues stand in square brackets, D forms with d. Residues, ends and D or L forms follow the SMILES beside them. Phe(4-COOH) = N[C@@H](Cc1ccc(C(=O)O)cc1)C(=O)O; Trp(7-aza) = N[C@@H](Cc1c[nH]c2ncccc12)C(=O)O; 3Pal(6-NH2) = Nc1ccc(C[C@H](N)C(=O)O)cn1; Gly(N(CH2)3COOH) = O=C(O)CCCNCC(=O)O; NMeF = CN[C@@H](Cc1ccccc1)C(=O)O; 3Pal = N[C@@H](Cc1cccnc1)C(=O)O; 4Pal = N[C@@H](Cc1ccncc1)C(=O)O; NMeA = CN[C@@H](C)C(=O)O; Sar = CNCC(=O)O

Experiments:
[1] = molecular target: T1, Myostatin (Homo sapiens, UniProt O14793); assay: HepG2 reporter gene assay, Evaluation Procedure (2): 2-concentrations assay, myostatin inhibition; format: cell-based; conditions: Myostatin 10 ng/mL, HepG2; for inhibition at 0.03 µM: peptide 30nM, read-out: Myostatin Inhibition 30nM; for inhibition at 0.1 µM: peptide 100nM, read-out: Myostatin Inhibition 100nM
T1 construct: active myostatin (also called mature myostatin) is a homodimer consisting of two C-terminal growth factor domains; purchased R&D systems 788-G8/CF
T1 sequence (O14793 267-375): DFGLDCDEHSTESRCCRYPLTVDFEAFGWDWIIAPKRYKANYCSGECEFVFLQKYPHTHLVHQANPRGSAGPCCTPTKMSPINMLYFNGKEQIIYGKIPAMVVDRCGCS
Experimental: (§1) The pGL3(CAGA)12-luc plasmid, namely a pGL3 vector (E1751, Promega) having a luciferase gene inserted downstream of a promoter sequence with 12 CAGA repeats attached, was transfected into HepG2 cell line (HB-8065, ATCC). The culture of HepG2 cell line (HB-8065, ATCC) was performed as in the Evaluation Procedure (1).
(§2) Myostatin (788-G8/CF, R&D systems) or GDF-11 (1958-GD-G8/CF, R&D systems) was added at a final concentration of 10 ng/mL. […] At this time, blank wells, in which neither myostatin, GDF-11, nor each peptide was added, were also prepared and incubated in a CO2 incubator (37°C, 5% CO2) for 20 to 24 hours.
(§3) The medium containing the cells was removed, and a mixture containing PBS (14190144, Thermo) and a chromogenic substrate One-Glo Luciferase Assay System (E6120, Promega) at a ratio of 1:1 was added to each well at 100 µL/well. This was stirred with a plate shaker for 5 min and transferred to a 384-well plate (3570, Corning) at a volume of 20 µL/well.
(§4) The plate was centrifuged at 1,000 × g for 1 min and the luminescence signal (700 nm luminescence) was measured using a plate reader (Envision 2104, PerkinElmer). Based on the measurement results, the inhibition rate at each peptide concentration was calculated. […]

[2] = molecular target: T2, GDF-11 (Homo sapiens, UniProt O95390); assay: HepG2 reporter gene assay, Evaluation Procedure (2): 2-concentrations assay, GDF-11 inhibition; format: cell-based; conditions: GDF-11 10 ng/mL; for inhibition at 0.03 µM: HepG2, peptide 30nM, read-out: GDF11 Inhibition 30nM; for inhibition at 0.1 µM: HepG2, peptide 100nM, read-out: GDF11 Inhibition 100nM
T2 construct: purchased R&D systems 1958-GD-G8/CF
T2 sequence (O95390 299-407): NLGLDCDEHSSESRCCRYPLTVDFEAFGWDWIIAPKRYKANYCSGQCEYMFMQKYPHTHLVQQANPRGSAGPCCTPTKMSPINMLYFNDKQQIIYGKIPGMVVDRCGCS
Experimental: as §1, §2, §3, §4

Compound | inhibition at 0.03 µM [1] | inhibition at 0.1 µM [1] | inhibition at 0.03 µM [2] | inhibition at 0.1 µM [2]
CC[C@H](C)[C@@H]1NC(=O)[C@H](Cc2ccccc2)N(C)C(=O)[C@H](Cc2ccc(O)cc2)NC(=O)[C@H](Cc2c[nH]c3ccccc23)NC(=O)[C@H](C)NC(=O)CN(CCCC(=O)O)C(=O)CSC[C@H](C(N)=O)NC(=O)[C@H](Cc2ccccc2)N(C)C(=O)[C@H](C)N(C)C(=O)[C@H](CC(C)C)NC(=O)[C@H](Cc2ccccc2)N(C)C(=O)[C@H](CCCNC(=N)N)NC(=O)[C@H](Cc2ccc(C(=O)O)cc2)NC(=O)[C@H](Cc2ccc(O)cc2)NC(=O)[C@H](C)N(C)C1=O [Myostatin_99_Variant_15] ({CH2CO}-[Gly(N(CH2)3COOH)]AWY[NMeF]I[NMeA]Y[Phe(4-COOH)]R[NMeF]L[NMeA][NMeF][dC]-NH2; thioether N-15) | 54% | 84% | 0% | 0%
CC[C@H](C)[C@@H]1NC(=O)[C@H](Cc2ccccc2)N(C)C(=O)[C@H](Cc2ccc(O)cc2)NC(=O)[C@H](Cc2c[nH]c3ncccc23)NC(=O)[C@H](C)NC(=O)CN(CCCC(=O)O)C(=O)CSC[C@H](C(N)=O)NC(=O)[C@H](Cc2ccccc2)N(C)C(=O)[C@H](C)N(C)C(=O)[C@H](CC(C)C)NC(=O)[C@H](Cc2ccccc2)N(C)C(=O)[C@H](CCCNC(=N)N)NC(=O)[C@H](Cc2ccc(C(=O)O)cc2)NC(=O)[C@H](Cc2ccccc2)NC(=O)CN(C)C1=O [Myostatin_99_Variant_20] ({CH2CO}-[Gly(N(CH2)3COOH)]A[Trp(7-aza)]Y[NMeF]I[Sar]F[Phe(4-COOH)]R[NMeF]L[NMeA][NMeF][dC]-NH2; thioether N-15) | 62% | 89% | 0% | 0%
CC[C@H](C)[C@@H]1NC(=O)[C@H](Cc2ccccc2)N(C)C(=O)[C@H](Cc2ccc(O)cc2)NC(=O)[C@H](Cc2c[nH]c3ncccc23)NC(=O)[C@H](C)NC(=O)CN(CCCC(=O)O)C(=O)CSC[C@H](C(N)=O)NC(=O)[C@H](Cc2ccccc2)N(C)C(=O)[C@H](C)N(C)C(=O)[C@H](CC(C)C)NC(=O)[C@H](Cc2ccccc2)N(C)C(=O)[C@H](CCCNC(=N)N)NC(=O)[C@H](Cc2ccc(C(=O)O)cc2)NC(=O)[C@H](Cc2ccncc2)NC(=O)CN(C)C1=O [Myostatin_99_Variant_21] ({CH2CO}-[Gly(N(CH2)3COOH)]A[Trp(7-aza)]Y[NMeF]I[Sar][4Pal][Phe(4-COOH)]R[NMeF]L[NMeA][NMeF][dC]-NH2; thioether N-15) | 40% | 76% | 0% | 0%
CC[C@H](C)[C@@H]1NC(=O)[C@H](Cc2ccccc2)N(C)C(=O)[C@H](Cc2ccc(O)cc2)NC(=O)[C@H](Cc2c[nH]c3ncccc23)NC(=O)[C@H](C)NC(=O)CN(CCCC(=O)O)C(=O)CSC[C@H](C(N)=O)NC(=O)[C@H](Cc2ccccc2)N(C)C(=O)[C@H](C)N(C)C(=O)[C@H](CC(C)C)NC(=O)[C@H](Cc2ccccc2)N(C)C(=O)[C@H](CCCNC(=N)N)NC(=O)[C@H](Cc2cccnc2)NC(=O)[C@H](Cc2ccccc2)NC(=O)CN(C)C1=O [Myostatin_99_Variant_22] ({CH2CO}-[Gly(N(CH2)3COOH)]A[Trp(7-aza)]Y[NMeF]I[Sar]F[3Pal]R[NMeF]L[NMeA][NMeF][dC]-NH2; thioether N-15) | 45% | 72% | 0% | 0%
CC[C@H](C)[C@@H]1NC(=O)[C@H](Cc2ccccc2)N(C)C(=O)[C@H](Cc2ccc(N)nc2)NC(=O)[C@H](Cc2c[nH]c3ncccc23)NC(=O)[C@H](C)NC(=O)CN(CCCC(=O)O)C(=O)CSC[C@H](C(N)=O)NC(=O)[C@H](Cc2ccccc2)N(C)C(=O)[C@H](C)N(C)C(=O)[C@H](CC(C)C)NC(=O)[C@H](Cc2ccccc2)N(C)C(=O)[C@H](CCCNC(=N)N)NC(=O)[C@H](Cc2ccc(C(=O)O)cc2)NC(=O)[C@H](Cc2ccccc2)NC(=O)CN(C)C1=O [Myostatin_99_Variant_24] ({CH2CO}-[Gly(N(CH2)3COOH)]A[Trp(7-aza)][3Pal(6-NH2)][NMeF]I[Sar]F[Phe(4-COOH)]R[NMeF]L[NMeA][NMeF][dC]-NH2; thioether N-15) | 1% | 54% | 0% | 0%
CC[C@H](C)[C@@H]1NC(=O)[C@H](Cc2ccccc2)N(C)C(=O)[C@H](Cc2ccc(N)nc2)NC(=O)[C@H](Cc2c[nH]c3ccccc23)NC(=O)[C@H](C)NC(=O)CN(CCCC(=O)O)C(=O)CSC[C@H](C(N)=O)NC(=O)[C@H](Cc2ccccc2)N(C)C(=O)[C@H](C)N(C)C(=O)[C@H](CC(C)C)NC(=O)[C@H](Cc2ccccc2)N(C)C(=O)[C@H](CCCNC(=N)N)NC(=O)[C@H](Cc2ccc(C(=O)O)cc2)NC(=O)[C@H](Cc2ccncc2)NC(=O)CN(C)C1=O [Myostatin_99_Variant_25] ({CH2CO}-[Gly(N(CH2)3COOH)]AW[3Pal(6-NH2)][NMeF]I[Sar][4Pal][Phe(4-COOH)]R[NMeF]L[NMeA][NMeF][dC]-NH2; thioether N-15) | 20% | 50% | 0% | 0%

Other lines, results leading:

inhibition at 0.03 µM [1] | inhibition at 0.1 µM [1] | inhibition at 0.03 µM [2] | inhibition at 0.1 µM [2] | Compound
34% | 75% | 0% | 4% | CC[C@H](C)[C@@H]1NC(=O)[C@H](Cc2ccccc2)N(C)C(=O)[C@H](Cc2ccc(O)cc2)NC(=O)[C@H](Cc2c[nH]c3ccccc23)NC(=O)[C@H](C)NC(=O)CN(CCCC(=O)O)C(=O)CSC[C@H](C(N)=O)NC(=O)[C@H](Cc2ccccc2)N(C)C(=O)[C@H](C)N(C)C(=O)[C@H](CC(C)C)NC(=O)[C@H](Cc2ccccc2)N(C)C(=O)[C@H](CCCNC(=N)N)NC(=O)[C@H](Cc2cccnc2)NC(=O)[C@H](Cc2ccc(O)cc2)NC(=O)CN(C)C1=O [Myostatin_99_Variant_16] ({CH2CO}-[Gly(N(CH2)3COOH)]AWY[NMeF]I[Sar]Y[3Pal]R[NMeF]L[NMeA][NMeF][dC]-NH2; thioether N-15)
37% | 72% | 0% | 14% | CC[C@H](C)[C@@H]1NC(=O)[C@H](Cc2ccccc2)N(C)C(=O)[C@H](Cc2ccc(O)cc2)NC(=O)[C@H](Cc2c[nH]c3ccccc23)NC(=O)[C@H](C)NC(=O)CN(CCCC(=O)O)C(=O)CSC[C@H](C(N)=O)NC(=O)[C@H](Cc2ccccc2)N(C)C(=O)[C@H](C)N(C)C(=O)[C@H](CC(C)C)NC(=O)[C@H](Cc2ccccc2)N(C)C(=O)[C@H](CCCNC(=N)N)NC(=O)[C@H](Cc2ccncc2)NC(=O)[C@H](Cc2ccc(O)cc2)NC(=O)CN(C)C1=O [Myostatin_99_Variant_17] ({CH2CO}-[Gly(N(CH2)3COOH)]AWY[NMeF]I[Sar]Y[4Pal]R[NMeF]L[NMeA][NMeF][dC]-NH2; thioether N-15)
56% | 80% | 0% | 0% | CC[C@H](C)[C@@H]1NC(=O)[C@H](Cc2ccccc2)N(C)C(=O)[C@H](Cc2ccc(O)cc2)NC(=O)[C@H](Cc2c[nH]c3ccccc23)NC(=O)[C@H](C)NC(=O)CN(CCCC(=O)O)C(=O)CSC[C@H](C(N)=O)NC(=O)[C@H](Cc2ccccc2)N(C)C(=O)[C@H](C)N(C)C(=O)[C@H](CC(C)C)NC(=O)[C@H](Cc2ccccc2)N(C)C(=O)[C@H](CCCNC(=N)N)NC(=O)[C@H](Cc2ccc(C(=O)O)cc2)NC(=O)[C@H](Cc2ccncc2)NC(=O)CN(C)C1=O [Myostatin_99_Variant_18] ({CH2CO}-[Gly(N(CH2)3COOH)]AWY[NMeF]I[Sar][4Pal][Phe(4-COOH)]R[NMeF]L[NMeA][NMeF][dC]-NH2; thioether N-15)
32% | 71% | 0% | 0% | CC[C@H](C)[C@@H]1NC(=O)[C@H](Cc2ccccc2)N(C)C(=O)[C@H](Cc2ccc(O)cc2)NC(=O)[C@H](Cc2c[nH]c3ccccc23)NC(=O)[C@H](C)NC(=O)CN(CCCC(=O)O)C(=O)CSC[C@H](C(N)=O)NC(=O)[C@H](Cc2ccccc2)N(C)C(=O)[C@H](C)N(C)C(=O)[C@H](CC(C)C)NC(=O)[C@H](Cc2ccccc2)N(C)C(=O)[C@H](CCCNC(=N)N)NC(=O)[C@H](Cc2cccnc2)NC(=O)[C@H](Cc2ccncc2)NC(=O)CN(C)C1=O [Myostatin_99_Variant_23] ({CH2CO}-[Gly(N(CH2)3COOH)]AWY[NMeF]I[Sar][4Pal][3Pal]R[NMeF]L[NMeA][NMeF][dC]-NH2; thioether N-15)
